Experiments:
[1] = tested on: Staphylococcus aureus ATCC 6538; assay: MIC by the agar dilution method; format: cell-based; settings: pH 5.5
Method: (§1) To assess the anti-microbial potency of Neramexane against bacteria strains which are relevant for atopic dermatitis and localized skin infections (“impetigo”), the minimal inhibitory concentration (MIC) against the following bacteria is established:
(§2) The MICs of the samples are determined using the agar dilution method based on DIN 58940. Petri dishes of 5.5 cm diameter are poured with 2.5 ml of freshly prepared Mueller-Hinton agar 2-fold concentrated (Merck company, Cat-No 1.05437), pH 5.5, maintained in liquid form at 50° C., to which the sample dilutions at various concentrations has been added at 50.0 vol.-%.
(§3) Neramexane-Mesylate is tested in the concentration range of 6.25-1*10^−2%. All test solutions are adjusted to pH 5.5.
(§4) For inoculation, 1 μl of the respective germ suspension is placed on the centre of each agar plate. After drying, inoculated plates are incubated at 36.0±2.0° C. The basis for the length of incubation period is the respective growth control cultivated in parallel.
(§5) The test microbe suspension is prepared by inoculating a few individual colonies of the respective bacteria into sterile saline solution until a turbidity corresponding to the McFarland standard 1.0 (approximately 10^8 cfu/ml) is reached. After that, the test microbe suspensions are further diluted 1:10 with saline solution and the microbial counts (see Table 33) are determined by the surface spread method using a spiral plater.
(§6) The agar plates are incubated under the conditions given in Table 34 and subsequently evaluated. The MIC-values as given represent the lowest concentration of the active substance at which there is no macroscopically visible growth. Minimal, barely visible growth or few small individual colonies are evaluated as inhibition.
(§7) The growth of bacteria is indicated for the duplicate plates by a +(i.e., growth) or a −(i.e., no growth), +− indicates weak growth on both plates or growth on one plate and no growth on the other plate. Both bacteria-strains show appropriate growth on the respective control plate not containing any test compound. No influence of the used diluent (Aqua purifacata) is observed. No contamination is observed on the control-plates. In general it has to be considered that values determined by the used method can vary by a factor of 2 (for 1:2 dilutions).

[2] = tested on: Streptococcus pyogenes ATCC 12344; assay: MIC by the agar dilution method; format: cell-based; settings: pH 5.5
Method: as §1, §2, §3, §4, §5, §6, §7

CC1(C)CC(C)(C)CC(C)(N)C1.CS(=O)(=O)O [Neramexane mesylate]
growth of bacteria on duplicate plates (MIC determination) ([1]; final concentration 0.01 %): + + | growth of bacteria on duplicate plates (MIC determination) ([1]; final concentration 0.04 %): + + | growth of bacteria on duplicate plates (MIC determination) ([1]; final concentration 0.08 %): + + | growth of bacteria on duplicate plates (MIC determination) ([1]; final concentration 0.16 %): + + | growth of bacteria on duplicate plates (MIC determination) ([1]; final concentration 0.31 %): + + | growth of bacteria on duplicate plates (MIC determination) ([1]; final concentration 0.63 %): + − | growth of bacteria on duplicate plates (MIC determination) ([1]; final concentration 1.56 %): − − | growth of bacteria on duplicate plates (MIC determination) ([1]; final concentration 2.50 %): − − | growth of bacteria on duplicate plates (MIC determination) ([1]; final concentration 3.13 %): − − | growth of bacteria on duplicate plates (MIC determination) ([1]; final concentration 6.25 %): − − | MIC [1]: 1.56% | growth of bacteria on duplicate plates (MIC determination) ([2]; final concentration 0.01 %): + + | growth of bacteria on duplicate plates (MIC determination) ([2]; final concentration 0.04 %): + + | growth of bacteria on duplicate plates (MIC determination) ([2]; final concentration 0.08 %): − − | growth of bacteria on duplicate plates (MIC determination) ([2]; final concentration 0.16 %): − − | growth of bacteria on duplicate plates (MIC determination) ([2]; final concentration 0.31 %): − − | growth of bacteria on duplicate plates (MIC determination) ([2]; final concentration 0.63 %): − − | growth of bacteria on duplicate plates (MIC determination) ([2]; final concentration 1.56 %): − − | growth of bacteria on duplicate plates (MIC determination) ([2]; final concentration 2.50 %): − − | growth of bacteria on duplicate plates (MIC determination) ([2]; final concentration 3.13 %): − − | growth of bacteria on duplicate plates (MIC determination) ([2]; final concentration 6.25 %): − − | MIC [2]: 0.08%
